Measurements from publication PMC8500670, “A selective WDR5 degrader inhibits acute myeloid leukemia in patient-derived mouse models” (Science translational medicine, 2021).
Where two headings read alike, the source gives them in different places.

How the values were obtained:
Test in all cases: biochemical
Alpha2A = biological target: T1, Alpha2A (Homo sapiens, UniProt P08913); design: GPCR, ion channel and transporter panel, per cent inhibition of binding, mean of four
T1 construct: gene ADRA2A
Method: (§1) We next assessed selectivity of MS67 against 22 protein methyltransferases (table S2) and a broad panel of common drug targets including 45 kinases (table S3) and 44 G protein–coupled receptors (GPCR), ion channels, and transporters (table S4). […] We subsequently determined that MS67 had moderate binding affinity (Ki = 1.0 ± 0.8 μM) to Sigma 2 receptor (fig. S10).

Alpha1B = biological target: T2, Alpha1B (Homo sapiens, UniProt P35368); design: GPCR, ion channel and transporter panel, per cent inhibition of binding, mean of four
T2 construct: gene ADRA1B
Method: as §1

Alpha1A = biological target: T3, Alpha1A (Homo sapiens, UniProt P35348); design: GPCR, ion channel and transporter panel, per cent inhibition of binding, mean of four
T3 construct: gene ADRA1A
Method: as §1

Alpha2C = biological target: T4, Alpha2C (Homo sapiens, UniProt P18825); design: GPCR, ion channel and transporter panel, per cent inhibition of binding, mean of four
T4 construct: gene ADRA2C
Method: as §1

D1 = biological target: T5, D1 (Homo sapiens, UniProt P21728); design: GPCR, ion channel and transporter panel, per cent inhibition of binding, mean of four
T5 construct: gene DRD1
Method: as §1

5-HT7A = biological target: T6, 5-HT7A (Homo sapiens, UniProt P34969); design: GPCR, ion channel and transporter panel, per cent inhibition of binding, mean of four
T6 construct: gene HTR7; isoform 7A
Method: as §1

H1 = biological target: T7, H1 (Homo sapiens, UniProt P35367); design: GPCR, ion channel and transporter panel, per cent inhibition of binding, mean of four
T7 construct: gene HRH1
Method: as §1

M1 = biological target: T8, M1 (Homo sapiens, UniProt P11229); design: GPCR, ion channel and transporter panel, per cent inhibition of binding, mean of four
T8 construct: gene CHRM1
Method: as §1

H2 = biological target: T9, H2 (Homo sapiens, UniProt P25021); design: GPCR, ion channel and transporter panel, per cent inhibition of binding, mean of four
T9 construct: gene HRH2
Method: as §1

D5 = biological target: T10, D5 (Homo sapiens, UniProt P21918); design: GPCR, ion channel and transporter panel, per cent inhibition of binding, mean of four
T10 construct: gene DRD5
Method: as §1

5-HT6 = biological target: T11, 5-HT6 (Homo sapiens, UniProt P50406); design: GPCR, ion channel and transporter panel, per cent inhibition of binding, mean of four
T11 construct: gene HTR6
Method: as §1

Alpha1D = biological target: T12, Alpha1D (Homo sapiens, UniProt P25100); design: GPCR, ion channel and transporter panel, per cent inhibition of binding, mean of four
T12 construct: gene ADRA1D
Method: as §1

M3 = biological target: T13, M3 (Homo sapiens, UniProt P20309); design: GPCR, ion channel and transporter panel, per cent inhibition of binding, mean of four
T13 construct: gene CHRM3
Method: as §1

5-HT2C = biological target: T14, 5-HT2C (Homo sapiens, UniProt P28335); design: GPCR, ion channel and transporter panel, per cent inhibition of binding, mean of four
T14 construct: gene HTR2C
Method: as §1

Sigma 2 = biological target: T15, Sigma 2 (Homo sapiens, UniProt Q5BJF2); design: GPCR, ion channel and transporter panel, per cent inhibition of binding, mean of four
T15 construct: gene TMEM97
T15 sequence (Q5BJF2 whole entry): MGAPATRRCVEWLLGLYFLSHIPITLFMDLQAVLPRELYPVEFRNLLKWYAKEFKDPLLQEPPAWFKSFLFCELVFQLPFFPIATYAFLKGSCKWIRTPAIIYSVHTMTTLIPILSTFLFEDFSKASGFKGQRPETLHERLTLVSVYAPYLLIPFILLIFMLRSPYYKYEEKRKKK
Method: as §1

NET = biological target: T16, NET (Homo sapiens, UniProt P23975); design: GPCR, ion channel and transporter panel, per cent inhibition of binding, mean of four
T16 construct: gene SLC6A2
Method: as §1

Alpha2B = biological target: T17, Alpha2B (Homo sapiens, UniProt P18089); design: GPCR, ion channel and transporter panel, per cent inhibition of binding, mean of four
T17 construct: gene ADRA2B
Method: as §1

NEK2(h) = NEK2(h) (Homo sapiens, UniProt P51955); design: kinase selectivity panel, activity as per cent of control, single concentration in duplicate; conditions: read-out: % of control remaining
Method: as §1

SAPK2a(h) = biological target: T18, SAPK2a(h) (Homo sapiens, UniProt Q16539); design: kinase selectivity panel, activity as per cent of control, single concentration in duplicate; conditions: read-out: % of control remaining
T18 construct: gene MAPK14
Method: as §1

FGFR1(h) = FGFR1(h) (Homo sapiens, UniProt P11362); design: kinase selectivity panel, activity as per cent of control, single concentration in duplicate; conditions: read-out: % of control remaining
Method: as §1

cSRC(h) = biological target: T19, cSRC(h) (Homo sapiens, UniProt P12931); design: kinase selectivity panel, activity as per cent of control, single concentration in duplicate; conditions: read-out: % of control remaining
T19 construct: gene SRC
Method: as §1

PRMT5/MEP50 Complex = PRMT5/MEP50 Complex (Homo sapiens, UniProt O14744); design: Complex; protein methyltransferase selectivity panel, enzyme activity relative to DMSO controls, single concentration in duplicate; conditions: Substrate:=Histone H2A
Chain of PRMT5/MEP50 Complex (O14744 whole entry): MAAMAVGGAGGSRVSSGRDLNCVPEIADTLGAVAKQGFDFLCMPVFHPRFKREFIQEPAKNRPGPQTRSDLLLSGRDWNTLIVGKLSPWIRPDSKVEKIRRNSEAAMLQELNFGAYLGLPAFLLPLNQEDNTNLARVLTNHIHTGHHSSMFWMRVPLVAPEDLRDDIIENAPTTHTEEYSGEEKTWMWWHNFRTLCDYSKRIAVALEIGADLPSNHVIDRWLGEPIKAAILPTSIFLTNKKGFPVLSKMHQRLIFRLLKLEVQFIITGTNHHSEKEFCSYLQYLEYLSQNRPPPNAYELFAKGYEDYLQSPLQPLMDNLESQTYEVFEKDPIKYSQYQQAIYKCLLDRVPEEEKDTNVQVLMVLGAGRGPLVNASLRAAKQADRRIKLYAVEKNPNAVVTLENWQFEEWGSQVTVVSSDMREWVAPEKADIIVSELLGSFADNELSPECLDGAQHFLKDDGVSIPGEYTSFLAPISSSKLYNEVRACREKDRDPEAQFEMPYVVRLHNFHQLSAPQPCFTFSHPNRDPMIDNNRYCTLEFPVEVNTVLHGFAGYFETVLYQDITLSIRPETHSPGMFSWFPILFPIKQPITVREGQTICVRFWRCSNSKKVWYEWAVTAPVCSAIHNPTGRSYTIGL
Chain of PRMT5/MEP50 Complex (Q9BQA1 whole entry partner): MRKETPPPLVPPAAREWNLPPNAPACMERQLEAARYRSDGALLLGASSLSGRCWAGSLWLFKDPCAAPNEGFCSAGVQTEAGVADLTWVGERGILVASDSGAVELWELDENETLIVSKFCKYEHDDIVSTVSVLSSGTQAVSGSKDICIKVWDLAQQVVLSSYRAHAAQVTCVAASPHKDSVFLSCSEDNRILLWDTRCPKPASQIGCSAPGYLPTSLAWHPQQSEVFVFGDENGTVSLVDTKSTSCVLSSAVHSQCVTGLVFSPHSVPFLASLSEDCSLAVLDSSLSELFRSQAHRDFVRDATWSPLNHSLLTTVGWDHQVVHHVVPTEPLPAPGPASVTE
Method: as §1

EZH1 Complex = EZH1 Complex (Homo sapiens, UniProt Q92800); design: Complex; protein methyltransferase selectivity panel, enzyme activity relative to DMSO controls, single concentration in duplicate; conditions: Substrate:=Core Histone
Chain of EZH1 Complex (Q92800 whole entry): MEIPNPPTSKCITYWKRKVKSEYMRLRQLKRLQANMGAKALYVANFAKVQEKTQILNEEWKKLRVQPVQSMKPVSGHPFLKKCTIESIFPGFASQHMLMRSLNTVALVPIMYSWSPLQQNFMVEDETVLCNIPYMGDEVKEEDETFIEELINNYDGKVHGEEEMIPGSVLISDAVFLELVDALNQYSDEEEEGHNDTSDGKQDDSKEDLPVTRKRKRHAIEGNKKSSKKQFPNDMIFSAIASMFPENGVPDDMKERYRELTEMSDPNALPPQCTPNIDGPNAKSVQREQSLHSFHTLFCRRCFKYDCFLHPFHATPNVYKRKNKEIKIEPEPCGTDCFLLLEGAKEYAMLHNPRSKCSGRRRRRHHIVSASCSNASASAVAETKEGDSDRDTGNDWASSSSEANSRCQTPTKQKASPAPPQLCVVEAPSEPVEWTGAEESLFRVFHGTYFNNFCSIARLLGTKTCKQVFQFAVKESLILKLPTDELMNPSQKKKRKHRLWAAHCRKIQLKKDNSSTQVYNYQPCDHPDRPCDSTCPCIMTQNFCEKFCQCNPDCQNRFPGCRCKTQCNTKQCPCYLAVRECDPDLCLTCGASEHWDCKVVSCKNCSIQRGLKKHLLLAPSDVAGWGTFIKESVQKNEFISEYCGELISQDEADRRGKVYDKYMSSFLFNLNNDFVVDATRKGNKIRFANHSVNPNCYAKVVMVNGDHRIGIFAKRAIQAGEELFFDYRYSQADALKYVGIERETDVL
Chain of EZH1 Complex (O75530 whole entry partner): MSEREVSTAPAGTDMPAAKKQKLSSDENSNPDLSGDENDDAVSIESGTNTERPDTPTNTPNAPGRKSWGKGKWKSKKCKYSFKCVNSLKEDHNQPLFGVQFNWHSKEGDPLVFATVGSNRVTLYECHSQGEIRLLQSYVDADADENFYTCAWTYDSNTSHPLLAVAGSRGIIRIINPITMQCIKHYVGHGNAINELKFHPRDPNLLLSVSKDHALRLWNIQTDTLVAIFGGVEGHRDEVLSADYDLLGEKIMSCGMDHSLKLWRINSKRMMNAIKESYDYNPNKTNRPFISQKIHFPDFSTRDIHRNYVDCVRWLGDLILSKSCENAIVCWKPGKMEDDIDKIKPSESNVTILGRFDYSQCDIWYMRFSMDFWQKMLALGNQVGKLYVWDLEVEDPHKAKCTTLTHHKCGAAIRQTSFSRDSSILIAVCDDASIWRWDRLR
Chain of EZH1 Complex (Q09028 whole entry partner): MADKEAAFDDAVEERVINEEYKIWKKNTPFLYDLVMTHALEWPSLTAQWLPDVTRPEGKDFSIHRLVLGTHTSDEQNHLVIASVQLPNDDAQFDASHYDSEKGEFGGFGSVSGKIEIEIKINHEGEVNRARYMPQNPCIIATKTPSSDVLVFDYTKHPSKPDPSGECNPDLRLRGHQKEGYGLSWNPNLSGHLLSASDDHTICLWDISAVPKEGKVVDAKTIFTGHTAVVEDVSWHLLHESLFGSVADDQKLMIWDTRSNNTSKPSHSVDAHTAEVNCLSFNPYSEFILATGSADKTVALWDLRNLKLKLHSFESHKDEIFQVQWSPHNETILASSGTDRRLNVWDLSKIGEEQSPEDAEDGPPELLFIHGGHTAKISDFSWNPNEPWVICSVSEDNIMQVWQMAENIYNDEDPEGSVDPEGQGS
Chain of EZH1 Complex (Q15022 whole entry partner): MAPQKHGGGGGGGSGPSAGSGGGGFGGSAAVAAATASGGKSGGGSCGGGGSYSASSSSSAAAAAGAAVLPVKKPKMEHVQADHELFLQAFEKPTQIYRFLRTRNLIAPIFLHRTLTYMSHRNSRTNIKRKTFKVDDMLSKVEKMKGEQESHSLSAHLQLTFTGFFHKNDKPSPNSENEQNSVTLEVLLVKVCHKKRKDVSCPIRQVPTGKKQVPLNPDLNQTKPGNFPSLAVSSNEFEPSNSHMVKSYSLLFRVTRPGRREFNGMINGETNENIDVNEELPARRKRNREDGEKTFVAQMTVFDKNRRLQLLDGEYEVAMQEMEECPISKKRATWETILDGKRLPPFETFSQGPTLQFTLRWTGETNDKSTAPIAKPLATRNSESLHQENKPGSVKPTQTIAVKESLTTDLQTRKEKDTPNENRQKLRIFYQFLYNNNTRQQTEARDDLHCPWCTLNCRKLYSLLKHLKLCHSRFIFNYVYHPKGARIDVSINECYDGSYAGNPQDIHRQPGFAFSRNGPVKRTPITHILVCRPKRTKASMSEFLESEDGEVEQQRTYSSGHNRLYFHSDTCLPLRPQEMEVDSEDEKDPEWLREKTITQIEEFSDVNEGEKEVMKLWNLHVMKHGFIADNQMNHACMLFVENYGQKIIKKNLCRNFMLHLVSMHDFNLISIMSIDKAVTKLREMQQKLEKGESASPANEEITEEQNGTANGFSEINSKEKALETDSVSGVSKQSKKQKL
Chain of EZH1 Complex (Q6ZN18 whole entry partner): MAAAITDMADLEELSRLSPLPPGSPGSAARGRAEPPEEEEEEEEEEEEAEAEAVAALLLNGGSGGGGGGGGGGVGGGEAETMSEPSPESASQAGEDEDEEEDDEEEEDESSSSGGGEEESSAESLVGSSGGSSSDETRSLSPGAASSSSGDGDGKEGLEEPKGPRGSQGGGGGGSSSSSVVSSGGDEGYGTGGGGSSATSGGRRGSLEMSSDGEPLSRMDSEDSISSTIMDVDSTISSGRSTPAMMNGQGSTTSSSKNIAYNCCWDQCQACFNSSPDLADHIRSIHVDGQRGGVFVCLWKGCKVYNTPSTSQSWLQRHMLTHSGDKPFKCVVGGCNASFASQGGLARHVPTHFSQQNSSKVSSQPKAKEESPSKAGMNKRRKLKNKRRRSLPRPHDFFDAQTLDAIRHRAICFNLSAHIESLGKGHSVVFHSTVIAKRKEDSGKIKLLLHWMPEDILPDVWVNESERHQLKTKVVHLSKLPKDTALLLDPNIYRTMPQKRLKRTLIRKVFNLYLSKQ
Method: as §1

EZH2 Complex = EZH2 Complex (Homo sapiens, UniProt Q15910); design: Complex; protein methyltransferase selectivity panel, enzyme activity relative to DMSO controls, single concentration in duplicate; conditions: Substrate:=Core Histone
Chain of EZH2 Complex (Q15910 whole entry): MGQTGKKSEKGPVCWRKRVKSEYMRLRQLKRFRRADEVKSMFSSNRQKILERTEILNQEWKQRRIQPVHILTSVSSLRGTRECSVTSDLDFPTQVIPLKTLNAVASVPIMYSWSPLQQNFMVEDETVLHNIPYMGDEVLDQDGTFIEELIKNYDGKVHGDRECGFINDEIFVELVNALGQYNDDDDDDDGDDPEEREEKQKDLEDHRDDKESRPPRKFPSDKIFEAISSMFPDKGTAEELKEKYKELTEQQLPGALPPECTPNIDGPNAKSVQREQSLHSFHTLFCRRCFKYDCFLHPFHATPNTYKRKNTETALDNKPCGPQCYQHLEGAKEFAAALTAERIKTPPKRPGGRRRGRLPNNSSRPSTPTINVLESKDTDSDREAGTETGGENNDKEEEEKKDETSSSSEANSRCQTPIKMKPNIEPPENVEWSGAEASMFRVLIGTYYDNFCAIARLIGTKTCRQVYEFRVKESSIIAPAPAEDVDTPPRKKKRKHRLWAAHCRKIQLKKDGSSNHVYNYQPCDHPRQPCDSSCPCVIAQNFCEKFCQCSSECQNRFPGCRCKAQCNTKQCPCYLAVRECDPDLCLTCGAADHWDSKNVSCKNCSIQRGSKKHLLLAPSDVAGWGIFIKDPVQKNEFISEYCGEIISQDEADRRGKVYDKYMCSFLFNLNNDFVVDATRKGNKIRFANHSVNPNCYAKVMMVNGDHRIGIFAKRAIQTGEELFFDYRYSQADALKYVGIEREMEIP
Chain of EZH2 Complex (O75530 whole entry partner): as the sequence (O75530 whole entry partner) above
Chain of EZH2 Complex (Q09028 whole entry partner): as the sequence (Q09028 whole entry partner) above
Chain of EZH2 Complex (Q15022 whole entry partner): as the sequence (Q15022 whole entry partner) above
Chain of EZH2 Complex (Q6ZN18 whole entry partner): as the sequence (Q6ZN18 whole entry partner) above
Method: as §1

[1] = read-out: Enzyme % Activity (relative to DMSO controls) / MS67 / 10 / Data 1:
[2] = read-out: Enzyme % Activity (relative to DMSO controls) / MS67 / 10 / Data 2:

Cc1ncsc1-c1ccc([C@H](C)NC(=O)[C@@H]2C[C@@H](O)CN2C(=O)[C@@H](NC(=O)CNC(=O)c2ccc(F)c(-c3ccc(N4C[C@@H](C)N(C)[C@@H](C)C4)c(NC(=O)c4c[nH]c(=O)cc4C(F)(F)F)c3)c2)C(C)(C)C)cc1 [MS67]
inhibition at 1 µM (Alpha2A): 21.3% | inhibition at 1 µM (Alpha1B): 27.6% | inhibition at 1 µM (Alpha1A): 24.4% | inhibition at 1 µM (Alpha2C): 1.35% | inhibition at 1 µM (D1): 18.7% | inhibition at 1 µM (5-HT7A): 12% | inhibition at 1 µM (H1): 15.9% | inhibition at 1 µM (M1): 43.6% | inhibition at 1 µM (H2): 19.7% | inhibition at 1 µM (D5): 22.1% | inhibition at 1 µM (5-HT6): 13.7% | inhibition at 1 µM (Alpha1D): 28.5% | inhibition at 1 µM (M3): 23.9% | inhibition at 1 µM (5-HT2C): 3.09% | inhibition at 1 µM (Sigma 2): 66.6% | inhibition at 1 µM (NET): -8.91% | inhibition at 1 µM (Alpha2B): 21.1% | remaining activity at 1 µM (NEK2(h)): 111% | remaining activity at 1 µM (SAPK2a(h)): 99% | remaining activity at 1 µM (FGFR1(h)): 105% | remaining activity at 1 µM (cSRC(h)): 96% | remaining activity at 10 µM (PRMT5/MEP50 Complex; [1]): 96.2% | remaining activity at 10 µM (PRMT5/MEP50 Complex; [2]): 97.3% | remaining activity at 10 µM (EZH1 Complex; [1]): 97.1% | remaining activity at 10 µM (EZH1 Complex; [2]): 103% | remaining activity at 10 µM (EZH2 Complex; [1]): 106% | remaining activity at 10 µM (EZH2 Complex; [2]): 101%
